US20060167106A1, “Compounds acting at the centrosome” (priority 2004, published 2006)
Entries after “also recorded” stand apart in the source; their conditions may differ.

How the values were obtained:
[1] = tested on: cell line expressing α-tubulin-YFP; experiment: α-tubulin-YFP expressing cell line, flow cytometry of strong fluorescent cells; type: cell-based
[2] = tested on: MDA-435 breast cancer cells; experiment: Multi-ubiquitin Western blotting in MDA-435 cells; type: cell-based; conditions: for increase of ubiquitinated proteins of the cell lysates: 500 nM
Procedure: Louis, Mo.) immediately before use, on ice for 1 hour. After scraping, the lysates were cleared by centrifugation at 13,000 RPM for 10 minutes at 4° C. Protein content was determined using a Bradford assay and bovine serum albumin as a standard (Bio-Rad Laboratories, Hercules, Calif.). Samples were solubilized by boiling in SDS sample buffer and subjected to SDS-PAGE. The proteins were subsequently transferred to a PVDF membrane (Bio-Rad, Hercules, Calif.). […] The alkaline phosphatase-conjugated secondary antibodies (Invitrogen, Carlsbad, Calif.) were diluted in blocking buffer and incubated with the blot for 1 hour at room temperature. The secondary antibodies were detected by the Western Breeze Chemiluminescent Kit (Invitrogen, Carlsbad, Calif.) and imaged using a Kodak 440 Image Station. Proteins targeted for degradation by the ubiquitin-dependent proteolytic pathway are tagged with multi-ubiquitin molecules. […] In this assay, accumulation of multi-ubiquitinated proteins in the cells is indicative of the impairment of proteasome activity.

26S proteasome [3] = experiment: Proteasome-sensor cells (HEK-293, GFP chimera), fluorescence imaging; type: cell-based; conditions: for accumulation of the GFP-based proteasome substrate at the center of the colonies: Compound 1 500 nM 20-40 hours, Velcade 50 or 500 nM 20 hours; for accumulation of GFP-labeled proteasome-targeting chimera protein, periphery of colony relative to center: HEK-293 colony, 500 nM; for proteasome inhibition activity in cell-based assays (overall statement): live proteasome-sensor cells
Text: Specifically, the proteasome-sensor cells are HEK-293 cells stably transfected with a vector (proteasome-sensor vector) that encodes naturally-occurring reef coral Zoanthus sp. green fluorescent protein (GFP) fused to a specific degradation motif that targets the fusion protein for removal by the 26S proteasome. The background fluorescence observed in normal cells with active proteasomes is low. When proteasomes are inhibited, the fluorescent protein quickly accumulates. […] Millennium Pharmaceuticals, Inc., Cambridge, Mass.). […] Velcade (Millennium Pharmaceuticals Inc.) was used as a positive control in this assay (at 5 nM, 50 nM, 500 nM or 5 μM). Velcade stock solution was prepared according to the manufacturer's instructions. GFP fluorescence of the cells was imaged at various time points using a standard filter for FITC with the Nikon TE300 microscope/digital imaging system described herein.

Hsp70 = Hsp70 Western blotting in MDA-435 cells; type: cell-based; conditions: 0.5 μM; for percentage change in Hsp70 expression relative to DMSO control: normalized to background and GAPDH
Procedure: Calculations of the percentage changes were made by using the automated band analysis tools of the Kodak 1D (v.3.6.3) program. Band intensities were normalized to background and GAPDH.
MDA-435 breast cancer cells were grown in 100 mm plastic-tissue culture dishes and treated for 6 and 24 hours with 0.5 μM Taxol, Compound 1, Taxol+Compound 1, MG132, ALLN, or DMSO. After treatment, cells were washed in PBS and cell lysates were prepared by adding 100 μL of lysis buffer, which contained 20 mM Tris-HCl (pH 7.5), 150 mM NaCl, 1 mM Na2EDTA, 1 mM EGTA, 1% Triton, 2.5 mM sodium pyrophosphate, 1 mM β-glycerophosphate, 1 mM Na3VO4 and 1 μg/ml leupeptin (Cell Signaling Technology, Beverly, Mass.) supplemented with 1 mM PMSF (Sigma, St. Louis, Mo.) immediately before use, on ice for 1 hour. After scraping, the lysates were cleared by centrifugation at 13,000 RPM for 10 minutes at 4° C. Protein content was determined using a Bradford assay and bovine serum albumin as a standard (Bio-Rad Laboratories, Hercules, Calif.). Samples were solubilized by boiling in SDS sample buffer and subjected to SDS-PAGE. The proteins were subsequently transferred to a PVDF membrane (Bio-Rad, Hercules, Calif.). After blocking with 5% nonfat milk in TBS for 1 hour, the blots were incubated with a mouse monoclonal anti-Hsp70 antibody, which is specific for the inducible form of Hsp70 (Clone C92F3A-5, 1:1000 dilution, Stressgen Biotechnologies Corp., Victoria, B.C., Canada) or a rabbit polyclonal anti-GAPDH antibody (1:2000 dilution, Abcam, Cambridge, Mass.) for 2 hours at room temperature. The horseradish-peroxidase-conjugated secondary antibodies, anti-mouse horse radish peroxidase, (1:2000, Bio-Rad, Hercules, Calif.) and goat anti-rabbit polyclonal horse radish peroxidase (1:2000, Abcam, Cambridge, Mass.)) were diluted in blocking buffer and incubated with the blot for 1 hour at room temperature. The secondary antibodies were detected by enhanced chemiluminescence (ECL, Amersham Biosciences, Piscataway, N.J.) and imaged using a Kodak 440 Image Station.

[4] = cited from earlier work
MCF-7 cells = experiment: α-tubulin-YFP localization in MCF-7 cells; type: cell-based; conditions: 40 hours after treatment with 500 nM for 25 hours
Text: MDA-435, MCF-7, CV-1, HT-29 and MCF-10A cell lines were maintained with 10% FBS-containing DMEM media. […] Living cells were examined using a fluorescent microscope for α-tubulin-YFP expression. Cells in single colonies that had microtubules labeled with tubulin-YFP were lifted and expanded using G418-containing media.

26S proteasome [5] = experiment: Proteasome-sensor cells, flow cytometry; type: cell-based
Procedure: The first measurement was determined by the increase of proteasome-sensor positive cells treated with Compound 1 or Velcade, as compared to DMSO, by using a cell line expressing the proteasome-sensor protein and flow cytometry analysis.
To measure the proteasome-inhibition effect of Compound 1, GFP fluorescence in the proteasome-sensor cells treated with Compound 1 and Velcade was measured using flow cytometry. […] Cells were harvested by treating the cells with 1×PBS for 5 minutes and pipetting the cells up and done 10 times. The cells were passed through a 100 μm-diameter filter before analyzing by FACS. A standard FITC filter was used for the FACS analysis. Quantitation of the proteasome-inhibitory effect of Compound 1 was determined by an increase in the percentage of GFP-positive cells, as compared to treatment with DMSO alone.
To further characterize the proteasome-inhibitory effect of Compound 1 in live cells, proteasome-sensor cells were treated with Compound 1 and the accumulation of the GFP-based proteasome substrate was measured by flow cytometry.

CN(NC(=O)CC(=O)NN(C)C(=S)c1ccccc1)C(=S)c1ccccc1 [Compound 1]
increase of the strong-fluorescent positive cells compared to DMSO ([1]; 500 nM): 20.37%
accumulation of ubiquitinated proteins / level of proteasome inhibition compared with Velcade ([2]; 0.5 μM Compound 1 versus Velcade 500 nM (and 5 nM), Western blot): significantly less accumulation of ubiquitinated proteins in cultured cells than Velcade; also recorded: below that of the positive control
increase of ubiquitinated proteins of the cell lysates ([2]; 6 hours of treatment in cell culture): 210.03
increase of ubiquitinated proteins of the cell lysates ([2]; 24 hours of treatment in cell culture): 243.11
accumulation of multi-ubiquitinated proteins ([2]; MDA-435 cells, 0.5 μM, 6 and 24 hours): induced the accumulation of multi-ubiquitinated proteins
accumulation of the GFP-based proteasome substrate at the center of the colonies (26S proteasome [3]; FIG. 14): did not cause significant accumulation
accumulation of the GFP-based proteasome substrate at the periphery of the colonies (26S proteasome [3]; FIG. 14, Compound 1 500 nM, 20-40 hours): significant accumulation of the GFP-based proteasome substrate
accumulation of proteasome-sensor protein in cells (26S proteasome [3]; HEK-293, 1 nM, 20 hours): accumulation of proteasome-sensor protein in cells
accumulation of proteasome-sensor protein in cells (26S proteasome [3]; HEK-293, 5 nM, 20 hours): accumulation of proteasome-sensor protein in cells
accumulation of proteasome-sensor protein in cells (26S proteasome [3]; HEK-293, 10 nM, 20 hours): accumulation of proteasome-sensor protein in cells
accumulation of proteasome-sensor protein in cells (26S proteasome [3]; HEK-293, 50 nM, 20 hours): induced an increase of the GFP-based proteasome substrate in the cytoplasm in some scattered cells; also recorded: accumulation of proteasome-sensor protein in cells
accumulation of proteasome-sensor protein in cells (26S proteasome [3]; HEK-293, 100 nM, 20 hours): significantly increased the GFP signal in the cytosol; also recorded: accumulation of proteasome-sensor protein in cells
accumulation of proteasome-sensor protein in cells (26S proteasome [3]; HEK-293, 0.5 μM, 24 hours): accumulation of proteasome-sensor protein in cells
accumulation of proteasome-sensor protein in cells (26S proteasome [3]; HEK-293, 500 nM, 20 hours): accumulation of proteasome-sensor protein in cells
accumulation of GFP-labeled proteasome-targeting chimera protein, periphery of colony relative to center (26S proteasome [3]; 20 hours): stronger accumulation at the periphery of the colony
accumulation of GFP-labeled proteasome-targeting chimera protein, periphery of colony relative to center (26S proteasome [3]; 40 hours): stronger accumulation at the periphery of the colony
distribution of GFP-labeled proteasome-targeting chimera protein (26S proteasome [3]; HEK-293 proteasome-sensor cell, 5 μM, 24 hours): general, broad distribution of GFP-labeled proteasome-targeting chimera protein in both the cytosol and nucleus
proteasome inhibition activity in cell-based assays (overall statement) (26S proteasome [3]): weak-to-moderate proteasome inhibitory effect in live cells; also recorded: moderate proteasome inhibition activity; also recorded: weak/moderate proteasome inhibitor
proteasome inhibition activity in cell-based assays (overall statement) (26S proteasome [3]; listed as GMP-grade Compound 1): detectable level of proteasome inhibition activity
induction of Hsp70 expression (Hsp70; 6 and 24 hours): strongly induced Hsp70 expression
percentage change in Hsp70 expression relative to DMSO control (Hsp70; 6 hours of treatment): 980%
percentage change in Hsp70 expression relative to DMSO control (Hsp70; 24 hours of treatment): 2121%
toxicity in vivo [4]: very low toxicity in vivo
accumulation of α-tubulin-YFP at centrosome-like structures (MCF-7 cells): accumulation of α-tubulin-YFP at centrosome-like structures
increase of the fluorescent positive cells (proteasome-sensor positive) compared to DMSO (26S proteasome [5]; 500 nM): 14.53%
increase of fluorescence (non-gated flow cytometry) (26S proteasome [5]; 500 nM, 20 hours): significant increase of fluorescence
increase in fluorescent cell population, lower than that of cells treated with Velcade (26S proteasome [5]; Compound 1 500 nM versus Velcade 100 nM, 20 hours): about 4 fold

CC(C)C[C@H](NC(=O)[C@H](Cc1ccccc1)NC(=O)c1cnccn1)B(O)O [Velcade]
increase of the strong-fluorescent positive cells compared to DMSO ([1]; 50 nM): 27.74%
accumulation of the GFP-based proteasome substrate at the center of the colonies (26S proteasome [3]; FIG. 14): greater accumulation of the GFP-based proteasome substrate in cells at the colony center than did Compound 1
accumulation of proteasome-sensor protein in cells (26S proteasome [3]; HEK-293, 1 nM, 20 hours): accumulation of proteasome-sensor protein in cells
accumulation of proteasome-sensor protein in cells (26S proteasome [3]; HEK-293, 5 nM, 20 hours): significantly induced an increase of GFP signal; also recorded: accumulation of proteasome-sensor protein in cells
accumulation of proteasome-sensor protein in cells (26S proteasome [3]; HEK-293, 10 nM, 20 hours): accumulation of proteasome-sensor protein in cells
accumulation of proteasome-sensor protein in cells (26S proteasome [3]; HEK-293, 50 nM, 20 hours): accumulation of proteasome-sensor protein in cells
accumulation of proteasome-sensor protein in cells (26S proteasome [3]; HEK-293, 100 nM, 20 hours): accumulation of proteasome-sensor protein in cells
accumulation of proteasome-sensor protein in cells (26S proteasome [3]; HEK-293, 100 nM, 24 hours): accumulation of proteasome-sensor protein in cells
accumulation of proteasome-sensor protein in cells (26S proteasome [3]; HEK-293, 500 nM, 20 hours): accumulation of proteasome-sensor protein in cells
toxicity in vivo [4]: greater toxicity
increase of the fluorescent positive cells (proteasome-sensor positive) compared to DMSO (26S proteasome [5]; 100 nM): 58.26%
increase of fluorescence (non-gated flow cytometry) (26S proteasome [5]; 100 nM, 20 hours): significant increase of fluorescence
